Measured values: patent publication US6358988B1, “Process and composition for the antiparasitic treatment of the surroundings of animals” (priority 1996, dated 2002)

Columns and labels:
[1] = test system: adult Tenebrio molitor; assay: whole plant or invertebrate; conditions: in Solanum tuberosum, 24 h
Experimental: Ten (10) gram pieces of potato were placed into individual jars. […] The acetone-surfactant solution comprised acetone. Triton® 152, and Triton® 172 mixed in volumetric ratio of about 785:1:3. […] Adult Tenebrio molitor and a strip of paper towel 1 cm by 3 cm were added to each jar. Mortality was rated at 1 day after treatment.
If the actually observed value is greater than the expected value […] then there is synergism.

[2] = test system: darkling beetles (Alphitobius diaperinus); assay: Poultry house litter treatment, darkling beetle population monitored with 9 traps; format: in vivo; conditions: water-dispersible granules containing 80% of compound (A), 150 g/ha; during the 10th week (end of a rearing cycle)
Experimental: The treatment took place on the clean litter before the poultry was installed therein. The clean litter was essentially composed of straw.
On the day after the treatment, a group of chicks aged 1 to 2 days was installed in the rearing house at the rate of approximately 7 animals per m^2.
The change in the population of darkling beetles (Alphitobius diaperinus) in the litter was regularly monitored using 9 homogeneously distributed traps. Measurements were carried out each week from the second week after the treatment until rearing was halted.
The total population of darkling beetles in the 9 traps of the treated poultry house varied between 11 and 96 until the 9th week after treatment whereas, in a similar but untreated poultry house, the population of darkling beetles (larvae and adults) oscillated between 1000 and 3000 at each counting point.

[3] = test system: fly larvae; conditions: 25 ppm of compound (A); surface of poultry dung and cow dung
Experimental: An application was carried out at the surface of poultry dung and of cow dung treated beforehand with fly larvae.

SMILES	mortality at 6.25 ppm [1] [%]	mortality at 25 ppm [1] [%]	mortality at 100 ppm [1] [%]	mortality at 400 ppm [1] [%]	control of darkling beetles [2] [%]	inhibition of larval development of the flies (effectiveness with respect to untreated controls) [3] [%]
CNC(=O)Oc1cccc2ccccc12 [Carbaryl, 1-naphthyl methylcarbamate, reference compound]	0	27	80	93		
N#Cc1nn(-c2c(Cl)cc(C(F)(F)F)cc2Cl)c(N)c1[S+]([O-])C(F)(F)F (stereo not drawn) [compound (A), 1-[2,6-Cl2-4-CF3phenyl]-3-CN-4-[SO—CF3]-5-NH2pyrazole]					86	100
